From patent US20060069132A1, “Azolecarboxamide herbicides” (priority 2004, published 2006)

Columns and labels:
[1] = system: barnyardgrass; test: Test B pre-/postemergence herbicide test; assay type: in vivo, Echinochloa crus-galli
Method in brief: (§1)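 Plants compared with untreated controls 13–15 days post-treatment and given a visual 0–100 injury score. Applications: preemergence to seeds; postemergence at 1- to 4-leaf (2–18 cm); paddy species flooded, 2-leaf stage. Vehicle non-phytotoxic, surfactant included.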

[2] = system: Surinam grass; test: Test B pre-/postemergence herbicide test; assay type: in vivo, Urochloa decumbens
Method in brief: (§2)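 Flooded paddy rice and barnyardgrass were treated at the 2-leaf stage; upland plantings received compound either on sown seed or on 1- to 4-leaf seedlings. All were kept 13–15 days in a greenhouse and scored visually, 0–100, relative to untreated plants.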

[3] = system: cocklebur; test: Test B pre-/postemergence herbicide test; assay type: in vivo, Xanthium strumarium
Method in brief: as §1

[4] = system: large crabgrass; test: Test B pre-/postemergence herbicide test; assay type: in vivo, Digitaria sanguinalis
Method in brief: as §2

[5] = system: giant foxtail; test: Test B pre-/postemergence herbicide test; assay type: in vivo, Setaria faberi
Method in brief: as §2

[6] = system: lambsquarters; test: Test B pre-/postemergence herbicide test; assay type: in vivo, Chenopodium album
Method in brief: as §2

[7] = system: morningglory; test: Test B pre-/postemergence herbicide test; assay type: in vivo, Ipomoea coccinea
Method in brief: as §1

[8] = system: pigweed; test: Test B pre-/postemergence herbicide test; assay type: in vivo, Amaranthus retroflexus
Method in brief: as §2

[9] = system: velvetleaf; test: Test B pre-/postemergence herbicide test; assay type: in vivo, Abutilon theophrasti
Method in brief: as §2

[10] = system: wheat; test: Test B postemergence herbicide test; assay type: in vivo, Triticum aestivum; parameters: key to Wheat plant response rating: 0 = no effect, 100 = complete control
Method in brief: (§3)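 After treating 2-leaf paddy plants or 2–18 cm postemergence plants (1 to 4 leaves) with formulated chemical, researchers kept them in a greenhouse for 13–15 days. Effects were judged visually versus controls: 0 indicates none, 100 total control.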

[11] = system: wild oat; test: Test B postemergence herbicide test; assay type: in vivo, Avena fatua
Method in brief: as §3

[12] = system: rice; test: Test B flooded paddy test; assay type: in vivo, Oryza sativa; conditions: 1000 g ai/ha, scale 0 to 100 (0 no effect, 100 complete control)
Method in brief: as §3

[13] = system: small flower umbrella sedge; test: Test B flooded paddy test; assay type: in vivo, Cyperus difformis; conditions: 1000 g ai/ha, scale 0 to 100 (0 no effect, 100 complete control)
Method in brief: (§4)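 Formulated test chemicals went onto postemergence plants measuring 2 to 18 cm, at one to four leaves. For the paddy assay, species had reached two leaves. Scoring took place 13–15 days later by eye, relative to untreated plants, using 0 for no effect up to 100 for full control.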

[14] = system: ducksalad; test: Test B flooded paddy test; assay type: in vivo, Heteranthera limosa; conditions: 1000 g ai/ha, scale 0 to 100 (0 no effect, 100 complete control)
Method in brief: as §4

[15] = system: barnyardgrass; test: Test B flooded paddy test; assay type: in vivo, Echinochloa crus-galli; conditions: 1000 g ai/ha, scale 0 to 100 (0 no effect, 100 complete control)
Method in brief: as §4

[16] = Postemergence, 250 g ai/ha, scale 0 (no effect) to 100 (complete control)
[17] = postemergence, 62 g ai/ha, scale 0 to 100
[18] = Postemergence, 500 g ai/ha, visual rating after 13 to 15 days, scale 0 (no effect) to 100 (complete control)
[19] = Preemergence, 500 g ai/ha, scale 0 to 100
[20] = postemergence, 125 g ai/ha, visual rating, scale 0 (no effect) to 100 (complete control)
[21] = preemergence, 125 g ai/ha, 0 to 100 scale, 0 is no effect, 100 is complete control
[22] = 125 g ai/ha, 0 is no effect, 100 is complete control, preemergence
[23] = Postemergence, 500 g ai/ha, scale 0 (no effect) to 100 (complete control)
[24] = postemergence, 125 g ai/ha, scale 0 to 100

CCNC(=O)c1ccnc(NC(=O)c2cc(C(C)(C)C)nn2CC)c1 [Compound 152]
90: Cocklebur plant response rating [3, 16] | Pigweed plant response rating [8, 16] | Sedge, Umbrella plant response rating ([13]; visual rating, 13 to 15 days)
50: Morningglory plant response rating [7, 17] | Pigweed plant response rating [8, 17] | Velvetleaf plant response rating [9, 16] | Velvetleaf plant response rating [9, 17]
70: Lambsquarters plant response rating [6, 17] | Rice plant response rating ([12]; visual rating, 13 to 15 days)
60: Cocklebur plant response rating [3, 17] | Morningglory plant response rating [7, 16]
80: Lambsquarters plant response rating [6, 16] | Ducksalad plant response rating ([14]; visual rating, 13 to 15 days) | Barnyardgrass plant response rating ([15]; visual rating, 13 to 15 days)
20: Crabgrass, Large plant response rating [4, 16] | Foxtail, Giant plant response rating [5, 16] | Oat, Wild plant response rating [11, 16]
30: Barnyardgrass plant response rating [1, 17] | Surinam Grass plant response rating [2, 17]
100: Wheat plant response rating ([10]; 250 g ai/ha, scale 0 to 100, 0 no effect, 100 complete control, preemergence)
40: Barnyardgrass plant response rating [1, 16] | Surinam Grass plant response rating [2, 16]
10: Crabgrass, Large plant response rating [4, 17] | Foxtail, Giant plant response rating [5, 17] | Wheat plant response rating [10, 16] | Wheat plant response rating [10, 17] | Oat, Wild plant response rating [11, 17]

C=CCOC(=O)c1cccc(NC(=O)c2cc(C(C)(C)C)nn2CC)c1 [Compound 85]
20: Foxtail, Giant plant response rating [5, 20] | Oat, Wild plant response rating [11, 20] | Ducksalad plant response rating ([14]; visual rating, 13 to 15 days)
50: Crabgrass, Large plant response rating [4, 20] | Plant response rating, Foxtail, Giant [5, 18] | Lambsquarters plant response rating [6, 20] | Morningglory plant response rating [7, 20] | Wheat plant response rating [10, 20] | Plant response rating, Oat, Wild [11, 18]
70: Plant response rating, Surinam Grass [2, 18]
100: Plant response rating, Cocklebur [3, 18] | Plant response rating, Morningglory [7, 18] | Plant response rating, Pigweed [8, 18] | Pigweed plant response rating [8, 20]
60: Barnyardgrass plant response rating [1, 20] | Surinam Grass plant response rating [2, 20] | Plant response rating, Lambsquarters [6, 18] | Velvetleaf plant response rating [9, 20] | Plant response rating, Wheat [10, 18] | Sedge, Umbrella plant response rating ([13]; visual rating, 13 to 15 days)
80: Plant response rating, Barnyardgrass [1, 18] | Plant response rating, Crabgrass, Large [4, 18] | Plant response rating, Velvetleaf [9, 18]
40: Rice plant response rating ([12]; visual rating, 13 to 15 days) | Barnyardgrass plant response rating ([15]; visual rating, 13 to 15 days)
90: Cocklebur plant response rating [3, 20]
0: Barnyardgrass plant response rating [1, 19] | Plant response rating, Barnyardgrass [1, 21] | Plant response rating, Surinam Grass [2, 21] | Cocklebur plant response rating [3, 19] | Plant response rating, Cocklebur [3, 21] | Crabgrass, Large plant response rating [4, 19] | Plant response rating, Crabgrass, Large [4, 21] | Foxtail, Giant plant response rating [5, 19] | Plant response rating, Foxtail, Giant [5, 21] | Plant response rating, Lambsquarters [6, 21] | Plant response rating, Morningglory [7, 21] | Plant response rating, Pigweed [8, 21] | Plant response rating, Velvetleaf [9, 21]

CCN(CC)C(=O)c1cccc(NC(=O)c2nn(C(C)(C)C)nc2C)c1 [Compound 418]
80: Plant response rating (0 to 100 scale), Foxtail, Giant [5, 22] | Morningglory plant response rating [7, 23] | Morningglory plant response rating [7, 24] | Pigweed plant response rating [8, 23] | Sedge, Umbrella plant response rating [13] | Barnyardgrass plant response rating [15]
20: Barnyardgrass plant response rating ([1]; Postemergence, 125 g ai/ha, scale 0 (no effect) to 100 (complete control)) | Barnyardgrass plant response rating [1, 23] | Surinam Grass plant response rating [2, 23] | Surinam Grass plant response rating [2, 24] | Cocklebur plant response rating [3, 24] | Crabgrass, Large plant response rating [4, 24] | Foxtail, Giant plant response rating [5, 24] | Velvetleaf plant response rating [9, 24] | Wheat plant response rating [10, 23]
30: Cocklebur plant response rating [3, 23] | Crabgrass, Large plant response rating [4, 23]
0: Plant response rating (0 to 100 scale), Cocklebur [3, 22] | Oat, Wild plant response rating [11, 24]
90: Plant response rating (0 to 100 scale), Surinam Grass [2, 22] | Lambsquarters plant response rating [6, 23]
10: Wheat plant response rating [10, 24] | Oat, Wild plant response rating [11, 23]
50: Plant response rating (0 to 100 scale), Velvetleaf [9, 22]
100: Plant response rating (0 to 100 scale), Crabgrass, Large [4, 22] | Plant response rating (0 to 100 scale), Lambsquarters [6, 22] | Plant response rating (0 to 100 scale), Pigweed [8, 22] | Wheat plant response rating ([10]; 500 g ai/ha, scale 0 to 100, 0 no effect, 100 complete control, preemergence)
60: Lambsquarters plant response rating [6, 24] | Rice plant response rating [12]
70: Plant response rating (0 to 100 scale), Barnyardgrass [1, 22] | Pigweed plant response rating [8, 24] | Ducksalad plant response rating [14]
40: Foxtail, Giant plant response rating [5, 23] | Plant response rating (0 to 100 scale), Morningglory [7, 22] | Velvetleaf plant response rating [9, 23]
